# Results published in PMC7529893, “Structural basis for substrate recognition and chemical inhibition of oncogenic MAGE ubiquitin ligases” (Nature Communications, 2020).
# Target: T1, MAGE-A11:PCF11 interaction (GST-MAGE-A11 and FAM-PCF11_4) (Homo sapiens, UniProt P43364)
# T1 construct: GST-MAGE-A11 MHD (human MAGE-A11 MHD amino acid 218-429); made in house; host or cells: E. coli BL21(DE3)
# T1 sequence (P43364 218-429): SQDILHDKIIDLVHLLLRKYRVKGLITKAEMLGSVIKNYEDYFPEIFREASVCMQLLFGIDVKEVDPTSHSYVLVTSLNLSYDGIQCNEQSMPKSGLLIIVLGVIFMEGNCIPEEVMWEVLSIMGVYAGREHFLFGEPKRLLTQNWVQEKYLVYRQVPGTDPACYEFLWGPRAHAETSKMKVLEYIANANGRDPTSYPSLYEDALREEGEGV
# Experiment: TR-FRET primary / single point screen at 15 µM
# Type: binding
# Conditions: single point TR-FRET screening of 797 quinoline compounds against MAGE-A11:PCF11
# Procedure, shortened: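 Single-point screen at 15 µM final compound in 50 mM Tris pH 7.5, 20 mM MgCl2, 0.1 mg/ml BSA, 1 mM DTT, with 200 nM FAM-PCF11_4, 5 nM Tb-anti-GST and 5 nM GST-MAGE-A11. After 90 min at room temperature, the 520/490 nm TR-FRET ratio (340 nm excitation) gave %Inhibition against no-MAGE-A11 and DMSO controls.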
row,Structure (SMILES),percent inhibition (TR-FRET)
1,CCCN(CCCNc1c2ccc(Cl)cc2nc2ccc(OC)cc12)Cc1cccn1C [SJ000522987],-302.626
2,Fc1ccccc1CN1CCC(Nc2ccnc3cc(Cl)ccc23)CC1 [SJ000523091],-0.9977
3,CCOC(=O)c1cnc2c(C)cc(Cl)cc2c1NCCN1CCOCC1 [SJ000129560],4.96
4,Cc1ccc(S(=O)(=O)c2cnc3ccc(F)cc3c2N2CCN(C)CC2)cc1C [SJ000247344],-7.6267
5,CCN1CCN(c2c(S(=O)(=O)c3ccccc3)cnc3ccc(C)cc23)CC1 [SJ000083956],-3.448
6,CCCN(CCCNc1c2ccc(Cl)cc2nc2ccc(OC)cc12)Cc1ccc(OC)c(F)c1 [SJ000522963],-177.507
7,CCCN(CCCNc1c2ccc(Cl)cc2nc2ccc(OC)cc12)Cc1ccccc1OC [SJ000520950],-271.121
8,Cc1cc(NC(=O)CN[C@H]2CCN(Cc3cccc(F)c3)C2)c2ccccc2n1 [SJ000832581],-1.278
9,COc1cccc(F)c1CN(CCCCNc1ccnc2cc(Cl)ccc12)Cc1ccccc1 [SJ000357501],5.094
10,CCN(CC)CC(=O)Nc1c2c(nc3ccccc13)CCCC2 [SJ000019523],2.741
11,COc1ccc2nc3cc(Cl)ccc3c(NCCCNCc3ccoc3)c2c1 [SJ000520916],-299.405
12,CCN1CCN(c2c(S(=O)(=O)c3ccccc3)cnc3ccc(OC)cc23)CC1 [SJ000083958],0.1242
13,Clc1ccc2c(NC3CCN(Cc4cccc5ccccc45)CC3)ccnc2c1 [SJ000523099],-6.179
14,CCCN(CCCNc1c2ccc(Cl)cc2nc2ccc(OC)cc12)Cc1cnn(C)c1 [SJ000522980],-276.65
15,COc1ccc(N2CCN(c3c(S(=O)(=O)c4ccccc4)cnc4ccc(OC)cc34)CC2)cc1 [SJ000117071],-32.6681
16,COc1ccc(N2CCN(c3c(S(=O)(=O)c4ccccc4)cnc4ccc(Cl)cc34)CC2)cc1 [SJ000083983],-17.9415

row,Structure (SMILES),percent inhibition (TR-FRET)
1,COc1ccc(C(F)(F)F)cc1CN(CCCCNc1ccnc2cc(Cl)ccc12)Cc1ccccc1 [SJ000520444],31.8155
2,CCCN(CCCNc1c2ccc(Cl)cc2nc2ccc(OC)cc12)Cc1ccoc1 [SJ000520937],-394.576
3,Clc1ccc2c(NC3CCN(Cc4ccc5c(c4)OCO5)CC3)ccnc2c1 [SJ000523087],7.6432
4,CCOC(=O)c1cnc2ccc(OCC)cc2c1NCCN(C)C [SJ000027288],10.6575
5,Clc1ccc2c(NCCCCN(Cc3ccccc3)Cc3ccc4ccccc4c3)ccnc2c1 [SJ000361205],24.6356
6,CCN(CC)CC(=O)Nc1c2c(nc3ccccc13)N(C)CC2 [SJ000331537],11.7837
7,CCOC(=O)c1cnc2c(C)cc(Cl)cc2c1NCCN(C)C [SJ000027210],3.834
8,COc1ccc2nc3cc(Cl)ccc3c(NCCCNCc3ccc(OC(F)(F)F)cc3)c2c1 [SJ000520992],-200.963
9,CCc1ccc2ncc(S(=O)(=O)c3ccc(OC)cc3)c(N3CCN(c4ccccc4)CC3)c2c1 [SJ000117056],-2.791
10,CCN1CCN(c2c(S(=O)(=O)c3ccc(C)cc3)cnc3cc(OC)c(OC)cc23)CC1 [SJ000083965],7.146
11,CCCN(CCCNc1c2ccc(Cl)cc2nc2ccc(OC)cc12)Cc1cccc(C)c1 [SJ000520954],-157.809
12,Oc1c(F)cc(F)cc1CN(CCCCNc1ccnc2cc(Cl)ccc12)Cc1ccccc1 [SJ000357506],30.6494
13,Fc1ccc(CN(CCCCNc2ccnc3cc(Cl)ccc23)Cc2ccccc2)cc1F [SJ000361197],26.0931
14,CCOC(=O)c1cnc2ccc(OCC)cc2c1N1CCN(C)CC1 [SJ000279526],-7.064
15,CCOC(=O)c1cnc2ccc(OC)cc2c1N1CCN(C)CC1 [SJ000279507],-2.791
16,COc1ccc2nc3cc(Cl)ccc3c(NCCCNCc3cc(F)ccc3OC)c2c1 [SJ000520993],-365.36

# Other lines, results leading:
row,percent inhibition (TR-FRET),Structure (SMILES)
1,-2.592,CCN(CC)CCCC(C)Nc1ccnc2cc(Cl)ccc12 (stereo not shown) [SJ000285185]
2,15.1059,Cc1[nH]cnc1CN(CCCCNc1ccnc2cc(Cl)ccc12)Cc1ccccc1 [SJ000520428]
3,-12.8602,Cc1csc(CN(CCCCNc2ccnc3cc(Cl)ccc23)Cc2ccccc2)n1 [SJ000520456]

# Same assay, conditions: single point TR-FRET screening of quinoline compounds against MAGE-A11:PCF11; 15 µM
row,Structure (SMILES),percent inhibition (TR-FRET)
1,CCCN(CCCNc1ccnc2cc(C(F)(F)F)ccc12)Cc1ccc2ccccc2c1 [SJ000523075],11.3882
2,CCOC(=O)c1cnc2c(Cl)cccc2c1NCCCN1CCOCC1 [SJ000279431],4.102
3,CCCN(CCCNc1ccnc2cc(C(F)(F)F)ccc12)Cc1ccccc1 [SJ000361256],28.8195
4,Clc1ccc2c(NCCCN(Cc3ccccc3)Cc3ccc4[nH]ccc4c3)ccnc2c1 [SJ000520430],66.4274
5,CCOC(=O)c1cnc2c(OC)cccc2c1NCCCN1CCOCC1 [SJ000180455],3.635
6,O=C(O)c1ccccc1CN(CCCNc1ccnc2cc(Cl)ccc12)Cc1ccccc1 [SJ000361180],9.598
7,CCCN(CCCNc1c2ccc(Cl)cc2nc2ccc(OC)cc12)Cc1cccc(OC)c1O [SJ000520930],-81.9559
8,c1coc(CNCCCNc2ccnc3cc(-c4cccc5ccccc45)ccc23)c1 [SJ000311274],41.5719
9,CCCN(CCCNc1c2ccc(Cl)cc2nc2ccc(OC)cc12)CC1CCOC1 (stereo not shown) [SJ000575149],-35.9356
10,O=C(C[C@H]1CC[C@]2(CC1)OO[C@]1(O2)C2CC3CC(C2)CC1C3)NCCCNc1ccnc2cc(Cl)ccc12 [SJ000578380],28.4789
11,COc1cccc(F)c1CN(CCCNc1ccnc2cc(Cl)ccc12)Cc1ccccc1 [SJ000357500],-2.857
12,CCOC(=O)c1cnc2ccc(OC)cc2c1NCCCN1CCOCC1 [SJ000127046],2.945
13,CCCN(CCCNc1ccnc2cc(Cl)ccc12)Cc1c2ccccc2cc2ccccc12 [SJ000522762],15.4935
14,CCCN(CCCNc1ccnc2cc(C(F)(F)F)ccc12)Cc1ccc(OC)cc1 [SJ000361273],22.8956

# More lines, now with the values ahead:
row,percent inhibition (TR-FRET),Structure (SMILES)
1,1.317,CCCCCCN(CCC)CCCNc1ccnc2cc(Cl)ccc12 [SJ000523048]
2,30.9303,CCCCCN(CCC)CCCNc1ccnc2cc(C(F)(F)F)ccc12 [SJ000361271]
3,23.5778,CCCCN(CCC)CCCNc1ccnc2cc(C(F)(F)F)ccc12 [SJ000520477]
4,24.7681,Fc1ccc(Cc2ccc3c(NCCCNCc4ccco4)ccnc3c2)c(Cl)c1 [SJ000311322]
5,4.744,Clc1ccc2c(NCCCNCc3ccccn3)ccnc2c1 [SJ000523050]
6,18.7467,CCCN(CCCNc1ccnc2cc(Cl)ccc12)Cc1ccc2c(c1)OCO2 [SJ000522753]
7,4.695,Clc1ccc2c(NCCCNCc3nc4ccccc4s3)ccnc2c1 [SJ000521034]
8,20.217,Cc1ccc(C)c(CN(CCCNc2ccnc3cc(Cl)ccc23)Cc2ccccc2)c1 [SJ000361187]
9,8.8745,CC(C)Cc1ccc2c(NCCCNCc3ccco3)ccnc2c1 [SJ000311258]
10,11.4525,CCCN(CCCNc1ccnc2cc(Cl)ccc12)CC(C)C [SJ000357568]
11,12.8181,CCCNCCCNc1ccnc2cc(C(F)(F)F)ccc12 [SJ000361123]
12,27.4843,FC(F)(F)c1ccc2c(NCCCNCc3cc4ccccc4o3)ccnc2c1 [SJ000521057]
13,9.822,CCC(C)CNCCCNc1ccnc2cc(Cl)ccc12 (stereo not shown) [SJ000361104]
14,16.951,CCCN(CCCNc1ccnc2cc(Cl)ccc12)Cc1ccc(Cl)c([N+](=O)[O-])c1 [SJ000522761]
15,29.3392,CCCN(CCCNc1ccnc2cc(Cl)ccc12)Cc1c[nH]c2ccc(F)cc12 [SJ000522992]
16,10.2048,Cc1ccc(CNCCCNc2ccnc3cc(Cl)ccc23)o1 [SJ000311326]
17,19.2696,Oc1ccccc1CN(CCCNc1ccnc2cc(Cl)ccc12)Cc1ccccc1 [SJ000361167]
18,-11.15,Clc1ccc2c(NCCCNCc3ccoc3)ccnc2c1 [SJ000520913]
19,9.295,CCCN(CCCNc1ccnc2cc(Cl)ccc12)Cc1ccncc1 [SJ000357449]
20,1.449,Cn1ccnc1CNCCCNc1ccnc2cc(Cl)ccc12 [SJ000521040]
21,-1.532,CCCN(CCCNc1ccnc2cc(Cl)ccc12)Cc1cn(C)c2ccccc12 [SJ000522995]
22,9.225,CC(C)(C)CCNCCCNc1ccnc2cc(Cl)ccc12 [SJ000521026]
23,18.1434,CCCN(CCCNc1ccnc2cc(Cl)ccc12)Cc1cccc2c1OCO2 [SJ000357594]
24,-10.469,Cc1csc(CN(CCCNc2ccnc3cc(Cl)ccc23)Cc2ccccc2)n1 [SJ000520463]
